Here are results for 35 compounds from US20250066345A1, “COMPOSITIONS AND METHODS OF USE TO TREAT 12-LIPOXYGENASE (12-LOX) MEDIATED DISEASES” (VERALOX THERAPEUTICS, priority 2021, published 2025).

Where only a bound is given, the exact number is not on record here.

The target of one assay is 12-LOX (Homo sapiens (Human), UniProt P18054). As to the kind of experiment: 12-LOX IC50 determination, UV-Vis assay with arachidonic acid substrate. Particulars: 30 nM 12-LOX, 50 μM AA, absorbance of 12-HPETE at 234 nm. It is filed as biochemical. As for the experimental part: (§1) The compounds were evaluated for inhibition of 12-LOX, as well as selectivity by measuring inhibition against 15-LOX for some compounds, using a UV-Vis assay. Arachidonic acid (AA) was used as a substrate for 12-LOX and 15-LOX. ML355 was used as the control inhibitor for 12-LOX. ML351 (5-(Methylamino)-2-(1-naphthalenyl)-4-oxazolecarbonitrile) was used as the control inhibitor for 15-LOX.
(§2) Reaction buffers used for the lipoxygenase assay were as follows: 25 mM HEPES (pH 7.5), with 0.01% Triton X-100. 1 mM 12-HPETE or 1 mM 15-HPETE stock solution was prepared in 25 mM HEPES with 0.01% Triton X-100.
The standard curve of 12-HPETE was made by serial dilution of 0, 6.25, 12.5, 25, 50, 75 and 100 μM, and the final reaction volume in 96 Well Clear Flat Bottom UV-Transparent Microplate is 100 μL. The absorbance of the 12-HPETE at each concentration was measured at 234 nm.
(§3) IC50 values were obtained by determining the % inhibition at various inhibitor concentrations. The final concentrations of the control inhibitors and test compounds in the IC50 determination assay are 0, 0.03, 0.1, 0.3, 1, 3, 10 and 20 μM. The final concentration of DMSO in the assay is 0.05%.
12-LOX IC50 determination. The 12-LOX enzyme and AA were diluted in the HEPES buffer to 120 nM and 200 μM, respectively. Pre-incubation 50 μL of indicated test compounds and 25 μL 120 nM enzyme at room temperature for 5 min. The reaction is started by adding 25 μL 200 μM AA. After a short spin (1000 rpm, 15 s), incubate the reaction system for 5 min. The blank control was set by adding 25 μL HEPES to 50 μL of control inhibitor compound (MHL355) and 25 μL 200 μM AA. The final concentrations of 12-LOX enzyme and AA were 30 nM and 50 μM, respectively. The absorbance of the 12-HPETE at 234 nm was measured.
(§4) The IC50 value was calculated by using GraphPad Prism 8.0.2.
(§5) The IC50 values are calculated with remaining activity (%) and logarithm of inhibitor concentrations.
(§6) Remaining Activity (%)=OD value inhibitor/OD value vehicle×100

In a further assay the target is 15-LOX (Homo sapiens (Human), UniProt P16050). As to the kind of experiment: 15-LOX IC50 determination, UV-Vis assay with arachidonic acid substrate (selectivity). The format is biochemical. The following applies: selectivity for 12-LOX over 15-LOX; 120 nM 15-LOX, AA substrate. On the procedure: as §1, §2
The standard curve of 15-HPETE was made by serial dilution of 0, 3.125, 6.25, 12.5, 25, 50 and 100 μM, and the final reaction volume in 96 Well Clear Flat Bottom UV-Transparent Microplate is 100 μL. The absorbance of the […] at each concentration was measured at 234 nm.
as §3
15-LOX IC50 determination. The 15-LOX enzyme and AA were diluted in the HEPES buffer to 480 nM and 200 μM, respectively. Pre-incubation 50 μL of indicated test compounds and 25 μL 480 nM enzyme at room temperature for 5 min. The reaction is started by adding 25 μL 200 μM AA. After a short spin (1000 rpm, 15 s), incubate the reaction system for 3 min. The blank control was set by adding 25 μL HEPES to 50 μL of control inhibitor compound (MHL355) and 25 μL 200 μM AA. The final concentrations of 15-LOX enzyme and AA were 120 nM and 50 µM, respectively. The absorbance of the 15-HPETE at 234 nm was measured. The assay was performed in duplicate.
as §4, §5, §6

Chain of 12-LOX (P18054 whole entry): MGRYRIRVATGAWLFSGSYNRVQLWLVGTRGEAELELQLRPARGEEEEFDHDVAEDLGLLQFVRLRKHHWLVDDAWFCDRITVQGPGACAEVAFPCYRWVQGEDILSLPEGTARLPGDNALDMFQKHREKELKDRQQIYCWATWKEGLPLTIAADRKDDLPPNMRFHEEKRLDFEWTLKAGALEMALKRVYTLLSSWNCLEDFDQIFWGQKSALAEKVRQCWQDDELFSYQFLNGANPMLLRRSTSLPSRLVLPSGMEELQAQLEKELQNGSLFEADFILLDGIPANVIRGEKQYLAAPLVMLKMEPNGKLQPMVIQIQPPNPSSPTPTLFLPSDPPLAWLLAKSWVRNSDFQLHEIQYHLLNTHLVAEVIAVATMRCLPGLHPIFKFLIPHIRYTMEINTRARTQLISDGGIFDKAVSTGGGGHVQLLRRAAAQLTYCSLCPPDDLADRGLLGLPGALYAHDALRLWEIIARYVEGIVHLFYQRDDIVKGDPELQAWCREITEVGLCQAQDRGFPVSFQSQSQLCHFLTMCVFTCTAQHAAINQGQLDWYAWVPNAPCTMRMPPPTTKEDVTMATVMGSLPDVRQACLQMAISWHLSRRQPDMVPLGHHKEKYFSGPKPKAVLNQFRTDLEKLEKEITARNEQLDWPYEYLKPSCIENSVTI
Chain of 15-LOX (P16050 whole entry): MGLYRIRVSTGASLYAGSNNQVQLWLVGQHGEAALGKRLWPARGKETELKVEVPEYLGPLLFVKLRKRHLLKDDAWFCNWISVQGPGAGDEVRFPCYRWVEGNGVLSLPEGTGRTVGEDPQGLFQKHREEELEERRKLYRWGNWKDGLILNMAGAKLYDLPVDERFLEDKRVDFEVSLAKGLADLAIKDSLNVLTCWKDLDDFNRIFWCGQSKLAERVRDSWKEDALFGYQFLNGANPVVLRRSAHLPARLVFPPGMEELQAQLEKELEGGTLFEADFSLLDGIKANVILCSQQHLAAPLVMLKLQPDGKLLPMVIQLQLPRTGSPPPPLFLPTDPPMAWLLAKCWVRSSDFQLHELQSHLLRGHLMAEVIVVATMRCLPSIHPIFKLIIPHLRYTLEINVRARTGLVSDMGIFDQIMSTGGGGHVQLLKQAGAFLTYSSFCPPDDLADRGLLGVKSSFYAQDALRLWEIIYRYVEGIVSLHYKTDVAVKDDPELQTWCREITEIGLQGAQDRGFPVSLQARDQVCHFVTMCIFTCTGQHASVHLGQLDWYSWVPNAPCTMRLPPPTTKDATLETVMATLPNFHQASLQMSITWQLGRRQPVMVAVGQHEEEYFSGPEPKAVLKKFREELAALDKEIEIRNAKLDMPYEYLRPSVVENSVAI

Take `COc1cccc(CNc2ccc(S(=O)(=O)Nc3nc(-c4ccc(F)c(Cl)c4)c(F)s3)nc2)c1O` [Compound I-1]: the IC50 (commonly the concentration that inhibits the measured activity by half) on 12-LOX is under 250 nM. Moreover, the “Selectivity over 15-LOX” value at 15-LOX was >50-fold. Taken in the same sequence, the figures for `COc1cccc(CNc2ccc(S(=O)(=O)Nc3nc(-c4ccc(Cl)c(F)c4)c(F)s3)nc2)c1O` [Compound I-2] were under 250 nM and >50-fold. As for `COc1cccc(CNc2ccc(S(=O)(=O)Nc3nc(-c4ccc(C(C)C)cc4)c(F)s3)nc2)c1O` [Compound I-3], the IC50 against 12-LOX was under 250 nM. Besides, on 15-LOX, the “Selectivity over 15-LOX” value is >20-fold. Turning to `COc1cccc(CNc2ccc(S(=O)(=O)Nc3nc(-c4ccc(C(C)C)cc4)cs3)nc2)c1O` [Compound I-4], the IC50 on 12-LOX was under 250 nM. The “Selectivity over 15-LOX” value at 15-LOX is >50-fold. Taken in the same sequence, the figures for `COc1cccc(CNc2ccc(S(=O)(=O)Nc3nc(-c4ccc(C5CC5)cc4)cs3)nc2)c1O` [Compound I-5] were under 250 nM and >50-fold. Taken in the same sequence, the figures for `COc1cccc(CNc2ccc(S(=O)(=O)Nc3nc(-c4ccc(F)c(F)c4)c(F)s3)nc2)c1O` [Compound I-6] were under 250 nM and >50-fold. For `COc1cccc(CNc2ccc(S(=O)(=O)Nc3nc(-c4ccc(F)c(F)c4)cs3)nc2)c1O` [Compound I-7], at 12-LOX, the IC50 is under 250 nM. For the same compound, on 15-LOX, the “Selectivity over 15-LOX” value is >50-fold. `COc1cccc(CNc2ccc(S(=O)(=O)Nc3nc(-c4ccc(Cl)c(F)c4)cs3)nc2)c1O` [Compound I-8, N-(4-(4-chloro-3-fluorophenyl)thiazol-2-yl)-5-((2-hydroxy-3-methoxybenzyl)amino)pyridine-2-sulfonamide] registered an IC50 against 12-LOX of under 250 nM. For the same compound, on 15-LOX, the “Selectivity over 15-LOX” value was >50-fold.

Compound `COc1cccc(CNc2ccc(S(=O)(=O)Nc3nc(-c4ccc(F)c(Cl)c4)cs3)nc2)c1O` [Compound I-9] registered an IC50 at 12-LOX of 250 to 1000 nM. The “Selectivity over 15-LOX” value at 15-LOX is >50-fold. Consider `COc1cccc(CNc2ccc(S(=O)(=O)Nc3nc4ccccc4s3)nc2)c1O` [Compound I-10], for which, at 12-LOX, the IC50 is over 1000 nM.

`COc1cccc(CN(C)c2ccc(S(=O)(=O)Nc3nc(-c4ccc(F)c(F)c4)c(F)s3)nc2)c1O` [Compound I-11]: the IC50 against 12-LOX was in the range of 250 to 1000 nM. For the same compound, at 15-LOX, the “Selectivity over 15-LOX” value was >20-fold.

Compound `COc1cccc(CNc2ccc(S(=O)(=O)Nc3nc(-c4ccc(C(F)(F)F)c(F)c4)cs3)nc2)c1O` [Compound I-12] registered an IC50 against 12-LOX of under 250 nM. The “Selectivity over 15-LOX” value on 15-LOX was >50-fold. Regarding `COc1cccc(CNc2ccc(S(=O)(=O)Nc3nc4c(ccc5ccccc54)s3)nc2)c1O` [Compound I-13], the IC50 against 12-LOX is under 250 nM. Further, the “Selectivity over 15-LOX” value on 15-LOX was >50-fold.

With `COc1cccc(CNc2ccc(S(=O)(=O)Nc3nc(-c4ccc(F)c(Cl)c4)c(F)s3)nc2C)c1O` [Compound I-14], on 12-LOX, the IC50 was 250 to 1000 nM. Further, on 15-LOX, the “Selectivity over 15-LOX” value is listed as ~10-fold. In turn, `COc1cccc(CNc2cnc(S(=O)(=O)Nc3nc(-c4ccc(F)c(Cl)c4)c(F)s3)cc2C)c1O` [Compound I-15] came in with an IC50 on 12-LOX of over 1000 nM. In addition, the “Selectivity over 15-LOX” value on 15-LOX is on record as <10-fold.

As for `COc1cccc(CNc2cnc(S(=O)(=O)Nc3nc(-c4ccc(F)c(Cl)c4)c(F)s3)c(C)c2)c1O` [Compound I-16], the IC50 on 12-LOX is under 250 nM. Moreover, on 15-LOX, the “Selectivity over 15-LOX” value is on record as >50-fold. Turning to `COc1cccc(CNc2cnc(S(=O)(=O)Nc3nc(-c4ccc(F)c(Cl)c4)c(F)s3)c(C(F)(F)F)c2)c1O` [Compound I-17], the IC50 on 12-LOX is under 250 nM. Further, the “Selectivity over 15-LOX” value on 15-LOX was >20-fold. In the case of `COc1cccc(CNc2cnc(S(=O)(=O)Nc3nc(-c4ccc(F)c(F)c4)c(F)s3)c(C)c2)c1O` [Compound I-18, N-(4-(3,4-difluorophenyl)-5-fluorothiazol-2-yl)-5-((2-hydroxy-3-methoxybenzyl)amino)-3-methylpyridine-2-sulfonamide], the IC50 on 12-LOX was under 250 nM. Moreover, the “Selectivity over 15-LOX” value on 15-LOX is reported as >50-fold. `COc1cccc(CN(C)c2cnc(S(=O)(=O)Nc3nc(-c4ccc(F)c(F)c4)cs3)c(C)c2)c1O` [Compound I-19] registered an IC50 on 12-LOX of over 1000 nM. In the case of `COc1cccc(CNc2cnc(S(=O)(=O)Nc3nc(-c4ccc(F)c(F)c4)c(F)s3)c(C(F)(F)F)c2)c1O` [Compound I-22], at 12-LOX, the IC50 was over 1000 nM. Besides, on 15-LOX, the “Selectivity over 15-LOX” value is on record as <10-fold.

For `COc1cccc(CNc2cnc(S(=O)(=O)Nc3nc(-c4ccc(Cl)c(F)c4)c(F)s3)c(C)c2)c1O` [Compound I-23], at 12-LOX, the IC50 was under 250 nM. Also, the “Selectivity over 15-LOX” value on 15-LOX is given as >50-fold. The compound `COc1cccc(CNc2ccc(S(=O)(=O)Nc3nc(-c4ccc(F)c(Cl)c4)c(CO)s3)nc2)c1O` [Compound I-24] gave an IC50 against 12-LOX of under 250 nM. Besides, on 15-LOX, the “Selectivity over 15-LOX” value is listed as >50-fold. Taken in the same sequence, the figures for `COc1cccc(CNc2ccc(S(=O)(=O)Nc3nc(-c4ccc(C(F)(F)F)c(F)c4)c(F)s3)nc2)c1O` [Compound I-25] were under 250 nM and >50-fold. On 12-LOX, `COc1cccc(CNc2cnc(S(=O)(=O)Nc3nc(-c4ccc(F)c(F)c4)cs3)c(C)c2)c1O` [Compound I-39] displayed an IC50 of under 250 nM. The “Selectivity over 15-LOX” value at 15-LOX was >50-fold. Compound `COc1cccc(CNc2cnc(S(=O)(=O)Nc3nc(-c4ccc(Cl)c(F)c4)cs3)c(C)c2)c1O` [Compound I-40] yielded an IC50 against 12-LOX of under 250 nM. In addition, on 15-LOX, the “Selectivity over 15-LOX” value was >50-fold. For the compound `COc1cccc(CNc2cnc(S(=O)(=O)Nc3nc(-c4ccc(F)c(Cl)c4)cs3)c(C)c2)c1O` [Compound I-41], the IC50 against 12-LOX is under 250 nM. Further, the “Selectivity over 15-LOX” value on 15-LOX is >50-fold. As for `COc1cccc(CNc2cnc(S(=O)(=O)Nc3nc(-c4ccc(F)c(Cl)c4)c(F)s3)c(-c3ccccc3)c2)c1O` [Compound I-42], on 12-LOX, the 50% inhibitory concentration (IC50) is under 250 nM. The “Selectivity over 15-LOX” value on 15-LOX was >50-fold. The compound `COc1cccc(CNc2cnc(S(=O)(=O)Nc3nc(-c4ccc(F)c(Cl)c4)c(F)s3)c(C3CC3)c2)c1O` [Compound I-43] returned an IC50 against 12-LOX of over 1000 nM. Further, at 15-LOX, the “Selectivity over 15-LOX” value was <20-fold.

As to `Cc1cc(NCc2cccc(OC(F)(F)F)c2O)cnc1S(=O)(=O)Nc1nc(-c2ccc(F)c(Cl)c2)c(F)s1` [Compound I-45], the half-maximal inhibitory concentration (IC50) on 12-LOX was over 1000 nM. Also, on 15-LOX, the “Selectivity over 15-LOX” value is <20-fold.

`CCOc1cccc(CNc2cnc(S(=O)(=O)Nc3nc(-c4ccc(F)c(Cl)c4)c(F)s3)c(C)c2)c1O` [Compound I-46]: the IC50 against 12-LOX is over 1000 nM. Moreover, the “Selectivity over 15-LOX” value at 15-LOX is recorded as <20-fold. `[2H]C([2H])([2H])Oc1cccc(CNc2cnc(S(=O)(=O)Nc3nc(-c4ccc(Cl)c(F)c4)c(F)s3)c(C([2H])([2H])[2H])c2)c1O` [Compound I-47]: the IC50 against 12-LOX was over 1000 nM. Besides, the “Selectivity over 15-LOX” value on 15-LOX is on record as <20-fold. At 12-LOX, `[2H]C([2H])([2H])Oc1cccc(CNc2cnc(S(=O)(=O)Nc3nc(-c4ccc(Cl)c(F)c4)c(F)s3)c(C)c2)c1O` [Compound I-48] returned an IC50 of under 250 nM. Further, the “Selectivity over 15-LOX” value at 15-LOX was >50-fold. On 12-LOX, `[2H]C([2H])([2H])Oc1cccc(CNc2ccc(S(=O)(=O)Nc3nc(-c4ccc(Cl)c(F)c4)c(F)s3)nc2)c1O` [Compound I-49] registered an IC50 of under 250 nM. For the same compound, the “Selectivity over 15-LOX” value at 15-LOX is listed as >50-fold. The compound `[2H]C([2H])([2H])Oc1cccc(CNc2cnc(S(=O)(=O)Nc3nc(-c4ccc(F)c(F)c4)c(F)s3)c(C)c2)c1O` [Compound I-50] came in with an IC50 on 12-LOX of 250 to 1000 nM. Moreover, the “Selectivity over 15-LOX” value at 15-LOX was >50-fold. The compound `[2H]C([2H])([2H])Oc1cccc(CNc2cnc(S(=O)(=O)Nc3nc(-c4ccc(F)c(Cl)c4)c(F)s3)c(C)c2)c1O` [Compound I-51] displayed a 50% inhibitory concentration (IC50) on 12-LOX of under 250 nM. The “Selectivity over 15-LOX” value at 15-LOX was >50-fold.
